Source: article PMC10600239, “Selective MCL-1 inhibitor ABBV-467 is efficacious in tumor models but is associated with cardiac troponin increases in patients” (Communications Medicine, 2023)
Where two headings read alike, the source gives them in different places.

Tests used:
Test in all cases: Off-target profiling (Supplementary Data 1)
[1] = target: off-target receptors, ion channels, and transporters (Homo sapiens, UniProt O43353); details: TR-FRET Kinome; Millipore A-1499319.7 .1(Subs Conc)
[2] = target: off-target receptors, ion channels, and transporters (Homo sapiens, UniProt P08069); details: TR-FRET Kinome; Invitrogen A-1198909.2 .2(Subs Conc)
[3] = target: off-target receptors, ion channels, and transporters (Homo sapiens, UniProt P08172)
Sequence of off-target receptors, ion channels, and transporters (Homo sapiens, UniProt P08172) (P08172 whole entry): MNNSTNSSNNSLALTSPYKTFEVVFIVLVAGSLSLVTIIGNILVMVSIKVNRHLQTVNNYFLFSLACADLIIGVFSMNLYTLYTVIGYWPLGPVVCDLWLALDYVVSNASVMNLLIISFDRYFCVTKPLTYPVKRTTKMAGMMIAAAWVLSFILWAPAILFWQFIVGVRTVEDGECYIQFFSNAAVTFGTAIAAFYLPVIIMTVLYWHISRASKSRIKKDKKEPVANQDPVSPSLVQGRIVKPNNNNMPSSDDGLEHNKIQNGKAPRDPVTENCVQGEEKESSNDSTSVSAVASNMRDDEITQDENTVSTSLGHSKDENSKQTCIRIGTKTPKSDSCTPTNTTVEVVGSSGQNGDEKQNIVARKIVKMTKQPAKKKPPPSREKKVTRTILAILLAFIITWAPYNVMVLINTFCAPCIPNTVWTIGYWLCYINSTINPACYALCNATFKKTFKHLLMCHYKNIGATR

[4] = target: off-target receptors, ion channels, and transporters (Homo sapiens, UniProt P08913)
Sequence of off-target receptors, ion channels, and transporters (Homo sapiens, UniProt P08913) (P08913 whole entry): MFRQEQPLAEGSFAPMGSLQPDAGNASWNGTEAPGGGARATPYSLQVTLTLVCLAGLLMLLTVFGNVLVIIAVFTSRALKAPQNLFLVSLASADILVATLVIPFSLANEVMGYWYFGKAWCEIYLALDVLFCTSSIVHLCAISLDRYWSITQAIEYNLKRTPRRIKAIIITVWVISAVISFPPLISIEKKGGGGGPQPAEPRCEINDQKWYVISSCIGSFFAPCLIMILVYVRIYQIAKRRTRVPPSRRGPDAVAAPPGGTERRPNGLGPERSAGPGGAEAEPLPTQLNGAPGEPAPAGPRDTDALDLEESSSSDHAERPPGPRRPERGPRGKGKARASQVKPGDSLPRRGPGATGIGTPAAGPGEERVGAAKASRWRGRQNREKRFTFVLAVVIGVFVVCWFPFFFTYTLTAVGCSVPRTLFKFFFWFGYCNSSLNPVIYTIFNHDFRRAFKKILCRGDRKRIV

[5] = target: off-target receptors, ion channels, and transporters (Homo sapiens, UniProt P23219); details: CEREP
[6] = target: off-target receptors, ion channels, and transporters (Homo sapiens, UniProt P29376); details: TR-FRET Kinome; Invitrogen A-1224615.7 .0125(Subs Conc)
[7] = target: off-target receptors, ion channels, and transporters (Homo sapiens, UniProt P35372)
Sequence of off-target receptors, ion channels, and transporters (Homo sapiens, UniProt P35372) (P35372 whole entry): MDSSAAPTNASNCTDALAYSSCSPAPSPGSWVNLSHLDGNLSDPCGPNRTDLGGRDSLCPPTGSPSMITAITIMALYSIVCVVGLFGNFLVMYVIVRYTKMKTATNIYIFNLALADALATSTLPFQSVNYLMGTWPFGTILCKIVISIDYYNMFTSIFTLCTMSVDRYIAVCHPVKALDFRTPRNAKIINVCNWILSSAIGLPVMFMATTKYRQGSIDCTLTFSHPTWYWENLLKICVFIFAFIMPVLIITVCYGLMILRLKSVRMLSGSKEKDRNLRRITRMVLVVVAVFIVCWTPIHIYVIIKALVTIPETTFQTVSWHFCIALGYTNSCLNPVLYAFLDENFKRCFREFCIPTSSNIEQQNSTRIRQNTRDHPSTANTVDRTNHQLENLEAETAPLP

[8] = target: off-target receptors, ion channels, and transporters (Homo sapiens, UniProt P43405); details: TR-FRET Kinome; Invitrogen A-1167389.7 .001(Subs Conc)
[9] = target: off-target receptors, ion channels, and transporters (Homo sapiens, UniProt P46734); details: TR-FRET Kinome; Invitrogen A-1224615.7 .2(Subs Conc)
[10] = target: off-target receptors, ion channels, and transporters (Homo sapiens, UniProt P48729); details: TR-FRET Kinome; Invitrogen A-1180691.2 .05(Subs Conc)
[11] = target: off-target receptors, ion channels, and transporters (Homo sapiens, UniProt P49336); details: TR-FRET Kinome; Invitrogen A-1167389.7 .025(Subs Conc)
[12] = target: off-target receptors, ion channels, and transporters (Homo sapiens, UniProt P49841); details: TR-FRET Kinome; Invitrogen A-1169612.6 .006(Subs Conc)
Sequence of off-target receptors, ion channels, and transporters (Homo sapiens, UniProt P49841) (P49841 whole entry): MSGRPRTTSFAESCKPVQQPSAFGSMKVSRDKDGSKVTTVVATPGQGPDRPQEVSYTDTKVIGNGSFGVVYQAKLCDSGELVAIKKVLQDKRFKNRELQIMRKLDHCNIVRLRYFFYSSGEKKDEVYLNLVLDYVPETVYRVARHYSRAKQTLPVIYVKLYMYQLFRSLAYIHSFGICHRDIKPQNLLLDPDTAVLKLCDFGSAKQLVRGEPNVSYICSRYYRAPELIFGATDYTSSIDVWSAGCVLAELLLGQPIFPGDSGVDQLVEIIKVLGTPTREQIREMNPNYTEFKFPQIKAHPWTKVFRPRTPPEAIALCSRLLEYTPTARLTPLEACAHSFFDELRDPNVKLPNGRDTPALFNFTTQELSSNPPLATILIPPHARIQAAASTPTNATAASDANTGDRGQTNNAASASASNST

[13] = target: off-target receptors, ion channels, and transporters (Homo sapiens, UniProt P50750); details: TR-FRET Kinome; Invitrogen A-1180691.2 .01(Subs Conc)
[14] = target: off-target receptors, ion channels, and transporters (Homo sapiens, UniProt P52333); details: TR-FRET Kinome; Invitrogen A-1180691.2 .05(Subs Conc)
[15] = target: off-target receptors, ion channels, and transporters (Homo sapiens, UniProt Q04771); details: TR-FRET Kinome; Invitrogen A-1180691.2 .05(Subs Conc)
Sequence of off-target receptors, ion channels, and transporters (Homo sapiens, UniProt Q04771) (Q04771 21-509): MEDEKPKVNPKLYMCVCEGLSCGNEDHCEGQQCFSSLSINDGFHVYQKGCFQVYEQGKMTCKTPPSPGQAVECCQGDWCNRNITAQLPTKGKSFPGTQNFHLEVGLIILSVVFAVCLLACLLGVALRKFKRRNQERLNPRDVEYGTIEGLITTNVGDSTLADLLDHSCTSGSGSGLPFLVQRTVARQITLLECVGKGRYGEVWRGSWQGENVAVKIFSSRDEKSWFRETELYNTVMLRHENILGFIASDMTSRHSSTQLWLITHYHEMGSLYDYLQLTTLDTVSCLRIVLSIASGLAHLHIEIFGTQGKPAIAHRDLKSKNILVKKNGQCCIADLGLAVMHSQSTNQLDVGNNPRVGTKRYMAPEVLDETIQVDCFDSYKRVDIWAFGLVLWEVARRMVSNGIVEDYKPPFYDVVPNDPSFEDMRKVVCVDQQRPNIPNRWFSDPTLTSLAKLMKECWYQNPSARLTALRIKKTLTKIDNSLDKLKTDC

[16] = target: off-target receptors, ion channels, and transporters (Homo sapiens, UniProt Q06418); details: TR-FRET Kinome; Invitrogen A-1169612.6 .05(Subs Conc)
[17] = target: off-target receptors, ion channels, and transporters (Homo sapiens, UniProt Q08881); details: TR-FRET Kinome; Invitrogen A-1224615.7 .025(Subs Conc)
Sequence of off-target receptors, ion channels, and transporters (Homo sapiens, UniProt Q08881) (Q08881 whole entry): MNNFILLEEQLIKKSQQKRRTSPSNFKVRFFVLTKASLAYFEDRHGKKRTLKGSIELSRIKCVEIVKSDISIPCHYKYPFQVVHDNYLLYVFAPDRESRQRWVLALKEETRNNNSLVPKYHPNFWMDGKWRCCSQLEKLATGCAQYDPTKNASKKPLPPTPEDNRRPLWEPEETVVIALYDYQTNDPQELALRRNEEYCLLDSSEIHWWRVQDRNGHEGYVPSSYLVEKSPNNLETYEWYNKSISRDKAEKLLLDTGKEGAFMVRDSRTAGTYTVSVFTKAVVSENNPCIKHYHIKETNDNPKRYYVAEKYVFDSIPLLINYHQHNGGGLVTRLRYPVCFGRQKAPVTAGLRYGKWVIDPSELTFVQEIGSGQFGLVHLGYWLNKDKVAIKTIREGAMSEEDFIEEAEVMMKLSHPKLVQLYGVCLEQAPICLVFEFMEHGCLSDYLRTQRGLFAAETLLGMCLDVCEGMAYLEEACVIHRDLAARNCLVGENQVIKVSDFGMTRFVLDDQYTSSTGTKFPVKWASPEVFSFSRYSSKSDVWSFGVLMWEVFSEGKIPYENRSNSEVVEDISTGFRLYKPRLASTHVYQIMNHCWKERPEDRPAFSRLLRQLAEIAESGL

[18] = target: off-target receptors, ion channels, and transporters (Homo sapiens, UniProt Q13627); details: TR-FRET Kinome; Invitrogen A-1180691.2 .0125(Subs Conc)
[19] = target: off-target receptors, ion channels, and transporters (Homo sapiens, UniProt Q96GD4); details: TR-FRET Kinome; Invitrogen A-1202211.2 .05(Subs Conc)
[20] = target: off-target receptors, ion channels, and transporters (Homo sapiens, UniProt Q9BYT3); details: TR-FRET Kinome; Invitrogen A-1167389.7 .05(Subs Conc)
[21] = target: off-target receptors, ion channels, and transporters (Homo sapiens, UniProt Q9UHD2); details: TR-FRET Kinome; Invitrogen A-1167389.7 .00625(Subs Conc)
[22] = target: off-target receptors, ion channels, and transporters (Homo sapiens, UniProt Q9UKP6); details: CEREP
Sequence of off-target receptors, ion channels, and transporters (Homo sapiens, UniProt Q9UKP6) (Q9UKP6 whole entry): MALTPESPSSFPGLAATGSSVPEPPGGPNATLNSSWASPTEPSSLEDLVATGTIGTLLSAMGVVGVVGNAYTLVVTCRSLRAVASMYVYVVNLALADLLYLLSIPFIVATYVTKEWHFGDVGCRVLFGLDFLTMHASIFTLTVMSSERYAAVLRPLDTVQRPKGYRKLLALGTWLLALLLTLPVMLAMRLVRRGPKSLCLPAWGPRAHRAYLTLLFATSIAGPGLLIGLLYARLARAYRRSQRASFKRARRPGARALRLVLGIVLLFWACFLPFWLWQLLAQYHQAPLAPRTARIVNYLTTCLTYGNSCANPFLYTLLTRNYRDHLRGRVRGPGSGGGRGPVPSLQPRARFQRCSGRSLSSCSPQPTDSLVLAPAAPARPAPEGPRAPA

[23] = target: off-target receptors, ion channels, and transporters (Homo sapiens, UniProt Q9UL54); details: TR-FRET Kinome; Invitrogen A-1169612.6 .2(Subs Conc)
[24] = target: off-target receptors, ion channels, and transporters (Homo sapiens, UniProt Q9UM73); details: TR-FRET Kinome; Millipore A-1167389.7 .05(Subs Conc)
Sequence of off-target receptors, ion channels, and transporters (Homo sapiens, UniProt Q9UM73) (Q9UM73 19-1620): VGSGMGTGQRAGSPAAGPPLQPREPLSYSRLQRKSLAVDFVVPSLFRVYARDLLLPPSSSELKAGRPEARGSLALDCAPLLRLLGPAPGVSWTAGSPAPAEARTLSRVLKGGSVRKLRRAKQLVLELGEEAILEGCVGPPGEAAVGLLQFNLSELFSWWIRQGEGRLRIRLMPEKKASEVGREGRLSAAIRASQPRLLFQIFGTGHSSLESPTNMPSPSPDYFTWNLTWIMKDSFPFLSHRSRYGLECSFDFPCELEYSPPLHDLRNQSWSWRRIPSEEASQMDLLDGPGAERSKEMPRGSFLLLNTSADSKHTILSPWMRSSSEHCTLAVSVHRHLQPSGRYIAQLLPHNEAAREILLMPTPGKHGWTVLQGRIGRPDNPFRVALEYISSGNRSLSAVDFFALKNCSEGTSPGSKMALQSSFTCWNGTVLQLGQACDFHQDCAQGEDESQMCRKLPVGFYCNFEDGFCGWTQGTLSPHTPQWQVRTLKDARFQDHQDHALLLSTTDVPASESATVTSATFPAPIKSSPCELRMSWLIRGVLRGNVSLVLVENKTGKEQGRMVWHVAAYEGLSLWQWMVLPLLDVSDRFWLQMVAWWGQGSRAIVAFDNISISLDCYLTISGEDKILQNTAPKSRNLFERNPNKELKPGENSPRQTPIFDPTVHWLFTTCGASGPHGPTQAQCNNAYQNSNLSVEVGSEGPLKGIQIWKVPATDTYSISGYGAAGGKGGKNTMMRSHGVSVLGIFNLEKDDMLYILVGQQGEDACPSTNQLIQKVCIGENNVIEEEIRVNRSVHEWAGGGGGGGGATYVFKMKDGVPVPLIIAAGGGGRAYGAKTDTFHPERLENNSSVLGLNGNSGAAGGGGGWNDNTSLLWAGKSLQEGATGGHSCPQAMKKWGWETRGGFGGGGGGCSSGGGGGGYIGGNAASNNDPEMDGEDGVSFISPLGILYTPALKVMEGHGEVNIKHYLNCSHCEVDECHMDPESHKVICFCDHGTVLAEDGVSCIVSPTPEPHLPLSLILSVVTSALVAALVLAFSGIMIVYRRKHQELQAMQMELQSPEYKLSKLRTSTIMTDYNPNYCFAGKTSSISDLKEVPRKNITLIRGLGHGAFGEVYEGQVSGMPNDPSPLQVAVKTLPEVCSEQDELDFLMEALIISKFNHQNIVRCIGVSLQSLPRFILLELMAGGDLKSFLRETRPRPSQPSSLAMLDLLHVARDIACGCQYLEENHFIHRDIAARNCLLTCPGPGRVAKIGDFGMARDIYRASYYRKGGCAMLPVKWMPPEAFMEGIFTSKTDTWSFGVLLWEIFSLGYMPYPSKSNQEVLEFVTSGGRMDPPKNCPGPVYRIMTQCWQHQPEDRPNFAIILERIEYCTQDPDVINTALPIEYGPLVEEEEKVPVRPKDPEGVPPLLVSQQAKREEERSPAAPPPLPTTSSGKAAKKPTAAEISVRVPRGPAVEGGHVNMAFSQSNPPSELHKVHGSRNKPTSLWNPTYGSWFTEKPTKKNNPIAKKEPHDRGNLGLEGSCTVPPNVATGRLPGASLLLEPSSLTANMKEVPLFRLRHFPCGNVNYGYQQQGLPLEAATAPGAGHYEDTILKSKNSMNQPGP

[25] = target: off-target receptors, ion channels, and transporters; details: for EC50: Bioprofiling 6pt Ag

Structure (SMILES): Cc1c(Cl)c2c(Cl)c(C)c1-c1c(-c3ccc(F)cc3)sc3ncnc(c13)O[C@@H](C(=O)O)Cc1cc(ccc1OCc1ccnc(-c3ccc(OC[C@H]4COCCO4)cc3)n1)OC[C@@H](CN1CCN(C)CC1)O2 [ABBV-467]
- RIPK2 - IC50 [1]: > 10 µM
- IGF1R - IC50 [2]: > 10 µM
- M2 CHO Human - EC50 ([3]; Bioprofiling 6pt Ag): > 10 µM
- M2 CHO Human - IC50 ([3]; Bioprofiling 6pt Antag, Carbachol): > 10 µM
- EC50 ([4]; read-out: Alpha2A CHO Human - EC50, Bioprofiling 6pt Ag): > 10 µM
- IC50 ([4]; read-out: Alpha2A CHO Human - IC50, Bioprofiling 6pt Antag, UK-14304): > 10 µM
- COX1 Human (Enzymatic Assay) - IC50 [5]: 8.6 µM
- LTK - IC50 [6]: > 10 µM
- Opioid mu CHO Human - EC50 ([7]; Bioprofiling 6pt Ag): > 10 µM
- Opioid mu CHO Human - IC50 ([7]; Bioprofiling 6pt Antag, DAMGO): > 10 µM
- Syk - IC50 [8]: > 10 µM
- MAP2K3 - IC50 [9]: > 10 µM
- Ck1alpha1 - IC50 [10]: > 10 µM
- CDK8/Cyclin C - IC50 [11]: > 10 µM
- Gsk3b - IC50 [12]: 9.9 µM
- CDK9/Cyclin K - IC50 [13]: 4.24 µM
- JAK3 - IC50 [14]: > 10 µM
- ACVR1 - IC50 [15]: > 10 µM
- TYRO3 - IC50 [16]: > 10 µM
- ITK - IC50 [17]: > 10 µM
- Dyrk1A - IC50 [18]: > 10 µM
- Aurora1 - IC50 [19]: > 10 µM
- STK33 - IC50 [20]: > 10 µM
- TBK1 - IC50 [21]: > 10 µM
- EC50 ([22]; read-out: Urotensin-II (UT1) Human (Functional - Agonist Effect) - EC50): > 30 µM
- IC50 ([22]; read-out: Urotensin-II (UT1) Human (Functional - Antagonist Effect) - IC50): > 30 µM
- TAOK2 - IC50 [23]: > 10 µM
- ALK - IC50 [24]: > 10 µM
- EC50 ([25]; read-out: CHO Hamster - EC50): > 10 µM
- EC50 ([25]; read-out: Cav1.2 (L-type) ND7/23 Mouse/Rat - EC50): > 10 µM
- IC50 ([25]; read-out: Cav1.2 (L-type) ND7/23 Mouse/Rat - IC50, Bioprofiling 6pt Antag, KCl): > 10 µM
